Assay results as given in patent publication US9828350B2, “5,6-dihydro-2H-[1,4]oxazin-3-yl-amine derivatives useful as inhibitors of beta-secretase (BACE)” (Janssen Pharmaceutica NV, priority 2010, dated 2017).

Key:
Abeta total = experiment: Cellular αLisa assay in SKNBE2 cells, Abeta total; type: cell-based, human; details: incubated for 18 hours; for IC50: Homo sapiens, SKNBE2, 18 h, read-out: Cellular αLisa assay in SKNBE2 cells Abetatotal pIC50 (converted)
Procedure, shortened: (§1)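 Secreted Abeta levels were measured by sandwich αLisa, pairing biotin-AbN/25 donor beads with Ab4G8 acceptor beads for total Abeta or cAb42/26 for Abeta 1-42, read at 615 nm after 650 nm excitation following 1 hour. Cells were SKNBE2 expressing wild-type hAPP695, exposed to compound for 18 hours.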

[1] = biological target: recombinant BACE1 protein (Homo sapiens, UniProt P56817); experiment: Biochemical FRET based assay; details: recombinant BACE1 1 μg/ml, 120 minutes at room temperature, pH 5.0; for IC50: read-out: Biochemical FRET based assay pIC50 (converted)
Sequence of recombinant BACE1 protein (P56817 46-501): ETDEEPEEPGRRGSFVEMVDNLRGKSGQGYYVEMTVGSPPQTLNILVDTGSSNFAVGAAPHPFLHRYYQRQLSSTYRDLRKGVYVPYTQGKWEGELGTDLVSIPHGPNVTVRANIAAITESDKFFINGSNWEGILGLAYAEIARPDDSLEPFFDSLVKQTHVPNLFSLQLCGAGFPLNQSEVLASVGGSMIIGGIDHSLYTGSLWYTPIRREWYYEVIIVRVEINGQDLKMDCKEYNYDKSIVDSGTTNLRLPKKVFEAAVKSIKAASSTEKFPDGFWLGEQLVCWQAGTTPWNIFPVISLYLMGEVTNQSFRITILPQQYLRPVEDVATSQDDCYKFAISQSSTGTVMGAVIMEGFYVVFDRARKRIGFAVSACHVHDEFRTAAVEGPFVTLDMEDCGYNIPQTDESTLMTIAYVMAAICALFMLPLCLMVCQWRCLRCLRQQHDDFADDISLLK
Procedure, shortened: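 Proteolysis was read as the rise in donor fluorescence (320 nm excitation, 405 nm emission) from T0 to T120, expressed in RFU. The reaction ran 120 minutes at room temperature at pH 5.0 in citrate buffer with 4% DMSO, using […] quenched Swedish APP peptide and 1 μg/ml BACE1.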

Aβ42 = experiment: Demonstration of in vivo efficacy, brain Aβ42 lowering (ELISA); details: mouse brain, 30 mpk
From the text: (§2) To determine whether acute administration of an Aβ42 peptide lowering agent would reduce Aβ peptide levels in vivo, non-transgenic rodents, e.g. mice or rats were used. Animals treated with the Aβ peptide lowering agent were examined and compared to those untreated or treated with vehicle and brain levels of soluble Aβ42 and total Aβ were quantitated by standard techniques, for example, using ELISA.
(§3) A typical protocol for measuring Aβ42 lowering in vivo is shown but it is only one of many variations that could be used to optimize the levels of detectable Aβ. For example, Aβ peptide lowering compounds were formulated in 20% hydroxypropyl 3 cyclodextrin. The Aβ peptide lowering agents were administered as a single oral dose (p.o.) or a single subcutaneous dose (s.c.) to overnight fasted animals. After a certain time, usually 2 or 4 h (as indicated in Table 19), the animals were sacrificed and Aβ42 levels were analysed.
(§4) Blood was collected by decapitation and exsanguinations in EDTA-treated collection tubes. Blood was centrifuged at 1900 g for 10 minutes (min) at 4° C. and the plasma recovered and flash frozen for later analysis. The brain was removed from the cranium and hindbrain. The cerebellum was removed and the left and right hemisphere were separated. The left hemisphere was stored at −18° C. for quantitative analysis of test compound levels. The right hemisphere was rinsed with phosphate-buffered saline (PBS) buffer and immediately frozen on dry ice and stored at −80° C. until homogenization for biochemical assays.
(§5) Mouse brains from non-transgenic animals were resuspended in 8 volumes of 0.4% DEA (diethylamine)/50 mM NaCl containing protease inhibitors (Roche-11873580001 or 04693159001) per gram of tissue, e.g. for 0.158 g brain, add 1.264 ml of 0.4% DEA. All samples were homogenized in the FastPrep-24 system (MP Biomedicals) using lysing matrix D (MPBio #6913-100) at 6 m/s for 20 seconds. Homogenates were centrifuged at 221.300×g for 50 min. The resulting high speed supernatants were then transferred to fresh eppendorf tubes. Nine parts of supernatant were neutralized with 1 part 0.5 M Tris-HCl pH 6.8 and used to quantify Aβtotal and Aβ42.
(§6) To quantify the amount of Aβtotal and Aβ42 in the soluble fraction of the brain homogenates, Enzyme-Linked-Immunosorbent-Assays were used. Briefly, the standards (a dilution of synthetic Aβ1-40 and Aβ1-42, Bachem) were prepared in 1.5 ml Eppendorf tube in Ultraculture, with final concentrations ranging from 10000 to 0.3 pg/ml. The samples and standards were co-incubated with HRPO-labelled N-terminal antibody for Aβ42 detection and with the biotinylated mid-domain antibody 4G8 for Aβtotal detection. […] The plate was allowed to incubate overnight at 4° C. in order to allow formation of the antibody-amyloid complex. Following this incubation and subsequent wash steps the ELISA for Aβ42 quantification was finished by addition of Quanta Blu fluorogenic peroxidase substrate according to the manufacturer's instructions (Pierce Corp., Rockford, Ill.). A reading was performed after 10 to 15 min (excitation 320 nm/emission 420 nm).

P-gp = biological target: T1, P-gp (Homo sapiens, UniProt P08183); experiment: Transepithelial transport of test compounds through LLC-MDR1 monolayers; type: in vitro ADME; details: for Papp A→B at 120 min, 1 μM: read-out: A to B (Apparent Permeability, Papp); for Papp B→A at 120 min, 1 μM: read-out: B to A (Apparent Permeability, Papp)
T1 construct: expressed in transfected cells; host or cells: LLC-PK1 cells stably transduced with MDR1 (LLC-MDR1)
T1 sequence (P08183 whole entry): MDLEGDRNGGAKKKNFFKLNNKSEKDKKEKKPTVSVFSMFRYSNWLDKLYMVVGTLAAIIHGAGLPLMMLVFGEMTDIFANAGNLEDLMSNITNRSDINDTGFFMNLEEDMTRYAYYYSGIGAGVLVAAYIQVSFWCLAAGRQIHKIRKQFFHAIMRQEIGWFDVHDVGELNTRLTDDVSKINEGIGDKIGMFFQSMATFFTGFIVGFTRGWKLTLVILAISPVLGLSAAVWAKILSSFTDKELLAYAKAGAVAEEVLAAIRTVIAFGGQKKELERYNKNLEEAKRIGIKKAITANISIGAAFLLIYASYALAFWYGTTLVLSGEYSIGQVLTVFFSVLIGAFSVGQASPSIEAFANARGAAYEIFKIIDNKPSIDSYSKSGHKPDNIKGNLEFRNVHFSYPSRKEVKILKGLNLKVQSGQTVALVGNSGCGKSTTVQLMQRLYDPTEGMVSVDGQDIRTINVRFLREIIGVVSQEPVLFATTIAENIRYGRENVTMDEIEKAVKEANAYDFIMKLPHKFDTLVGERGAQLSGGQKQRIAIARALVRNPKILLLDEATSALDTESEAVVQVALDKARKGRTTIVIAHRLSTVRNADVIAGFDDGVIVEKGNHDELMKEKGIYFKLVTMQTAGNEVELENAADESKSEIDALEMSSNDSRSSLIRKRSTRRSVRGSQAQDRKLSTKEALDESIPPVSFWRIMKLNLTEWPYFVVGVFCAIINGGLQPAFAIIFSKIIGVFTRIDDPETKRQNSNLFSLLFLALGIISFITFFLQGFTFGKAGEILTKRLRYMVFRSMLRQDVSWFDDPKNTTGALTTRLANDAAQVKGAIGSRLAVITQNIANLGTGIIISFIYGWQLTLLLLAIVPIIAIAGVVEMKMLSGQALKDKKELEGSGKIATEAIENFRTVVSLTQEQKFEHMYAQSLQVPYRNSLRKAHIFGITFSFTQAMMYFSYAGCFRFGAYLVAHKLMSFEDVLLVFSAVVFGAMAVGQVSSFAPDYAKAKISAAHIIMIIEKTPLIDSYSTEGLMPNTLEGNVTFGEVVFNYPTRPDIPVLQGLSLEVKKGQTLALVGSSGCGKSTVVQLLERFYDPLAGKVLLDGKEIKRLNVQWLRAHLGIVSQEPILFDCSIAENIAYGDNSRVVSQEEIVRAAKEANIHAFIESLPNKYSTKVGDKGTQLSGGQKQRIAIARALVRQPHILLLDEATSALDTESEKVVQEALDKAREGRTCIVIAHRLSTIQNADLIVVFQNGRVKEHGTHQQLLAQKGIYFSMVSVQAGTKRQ
Protocol: Brief Assay Description for the Measurement of Transepithelial Transport of Test Compounds Through LLC-MDR1 Monolayers
The purpose of this assay was to assess both the in vitro passive permeability of test compounds and their ability to be transported substrates of P-gp using LLC-PK1 cells stably transduced with MDR1 in a trans-well system. The positive control for transport was ^3H-digoxin (30 nM) and the positive control inhibitor was GF120918 (5 μM). The marker compound for low permeability was ^14C-Mannitol (1 μM). The test compound concentration was 1 μM.
The integrity of the cellular monolayer was assessed in each incubation well through the inclusion of the fluorescent, low permeability marker compound, Fluorescein.
In detail, LLC-MDR1 cells were seeded on 24-well cell culture inserts (Millicell®-PCF, 0.4 μm, 13 mm diameter, 0.7 cm^2) at 400,000 cells/cm^2. Cell culture medium consisted of Medium 199 supplemented with 10% Foetal Bovine Serum (FBS) and 100 U/ml Penicillin/streptomycin and was replaced the day after seeding and the day before the experiment. The transport experiment was performed 5 days after seeding. On the day of the experiment, solutions of the test compounds were applied to the apical or basolateral side of the monolayers to assess transport in the A to B and B to A directions, respectively. The medium used in the assay was (OPTI-MEM (1×) (GIBCO) with 1 w/v % Bovine Serum Albumin. Inserts were incubated at 37° C. in a humidified incubator containing 5% CO2. Samples from the acceptor and donor compartments were collected after an incubation time of 120 min, to assess the permeability and to allow estimation of the test compound recovery during the experiment, respectively. Transport experiments were performed in triplicate. Absolute test compound concentrations were measured using LC-MS/MS and quantified via a calibration curve.

Aβtotal = experiment: Demonstration of in vivo efficacy, brain Aβtotal lowering (ELISA); details: mouse brain, 30 mpk
From the text: as §2, §3, §4, §5, §6
For Aβtotal detection, a Streptavidine-Peroxidase-Conjugate was added, followed 60 min later by an additional wash step and addition of Quanta Blu fluorogenic peroxidase substrate according to the manufacturer's instructions (Pierce Corp., Rockford, Ill.). A reading was performed after 10 to 15 min (excitation 320 nm/emission 420 nm).

Abeta 1-42 = experiment: Cellular αLisa assay in SKNBE2 cells, Abeta 1-42; type: cell-based, human; details: incubated for 18 hours; for IC50: Homo sapiens, SKNBE2, 18 h, read-out: Cellular αLisa assay in SKNBE2 cells Abeta 42 pIC50 (converted)
Procedure, shortened: as §1

| SMILES | IC50 (Abeta total) | IC50 [1] | Papp A→B at 120 min, 1 μM (P-gp; pig, LLC-PK1) | Papp B→A at 120 min, 1 μM (P-gp; pig, LLC-PK1) | IC50 (Abeta 1-42) | melting point | Aβ42 (% Ctrl)_Mean (Aβ42; s.c., 4 h) | Aβtotal (% Ctrl)_Mean (Aβtotal; s.c., 4 h) | Aβ42 (% Ctrl)_Mean (Aβ42; p.o., 4 h) | Aβtotal (% Ctrl)_Mean (Aβtotal; p.o., 4 h) | further results |
| --- | --- | --- | --- | --- | --- | --- | --- | --- | --- | --- | --- |
| CC1(c2cc(-c3cncnc3)c(F)cc2F)COCC(N)=N1 (single isomer, unassigned) [Compound 55] |  |  |  |  |  |  | 88 % Ctrl | 87 % Ctrl |  |  | Cellular αLisa assay in SKNBE2 cells Abetatotal pIC50 (Abeta total): 6.99; Biochemical FRET based assay pIC50 [1]: 5.55; A to B (Apparent Permeability, Papp) (P-gp; LLC-MDR1 monolayers, 1 μM test compound, 120 minutes, apical to basolateral, absence of GF120918): 9.5 ×10⁻⁶ cm/s; B to A (Apparent Permeability, Papp) (P-gp; LLC-MDR1 monolayers, 1 μM test compound, 120 minutes, basolateral to apical): 34.4 ×10⁻⁶ cm/s; BA/AB (P-gp; LLC-MDR1 monolayers, ratio of B to A and A to B permeation rates): 3.6; Cellular αLisa assay in SKNBE2 cells Abeta 42 pIC50 (Abeta 1-42): 6.89 |
| C[C@@]1(c2cc(-c3cncnc3)c(F)cc2F)N=C(N)CO[C@H]1F (single isomer, unassigned) [Compound 82, (S*,S*)-5-(2,4-difluoro-5-pyrimidin-5-ylphenyl)-6-fluoro-5-methyl-5,6-dihydro-2H-1,4-oxazin-3-amine] | 245 nM | 631 nM | 10.5 ×10⁻⁶ cm/s | 23.9 ×10⁻⁶ cm/s | 251 nM |  |  |  |  |  | Aβ42 (% Ctrl)_Mean (Aβ42; s.c., 2 h): 57 % Ctrl; efflux ratio at 120 min, 1 μM (P-gp; pig, LLC-PK1, LLC-MDR1 monolayers, ratio of B to A and A to B permeation rates, read-out: BA/AB): 2.3; Aβtotal (% Ctrl)_Mean (Aβtotal; s.c., 2 h): 44 % Ctrl |
| CC1(c2cccc(NC(=O)c3ccc(Cl)cn3)c2)COC(F)(C(F)(F)F)C(N)=N1 (racemic) [Compound 9, rac-N-{3-[5-amino-6-fluoro-3-methyl-6-(trifluoromethyl)-3,6-dihydro-2H-1,4-oxazin-3-yl]phenyl}-5-chloropyridine-2-carboxamide] | 8510 nM | 3470 nM |  |  | > 10000 nM | 193.3 °C | 87 % Ctrl | 101 % Ctrl |  |  |  |
| N#Cc1ccc(C(=O)Nc2cccc([C@@]3(C4CC4)N=C(N)CO[C@@]3(F)C(F)(F)F)c2)nc1 [Compound 199, (2S,3R)—N-{3-[5-amino-3-cyclopropyl-2-fluoro-2-(trifluoromethyl)-3,6-dihydro-2H-1,4-oxazin-3-yl]phenyl}-5-cyanopyridine-2-carboxamide] | 17 nM | 14.8 nM |  |  | 16.6 nM | 196.12 °C |  |  |  |  | Aβ42 (% Ctrl)_Mean (Aβ42; s.c., 2 h): 64 % Ctrl; Aβtotal (% Ctrl)_Mean (Aβtotal; s.c., 2 h): 45 % Ctrl |
| COc1cncc(-c2cccc(C3(C)COCC(N)=N3)c2)c1 (single isomer, unassigned) [Compound 8] | 178 nM | 2040 nM |  |  | 214 nM | 79.5 °C | 92 % Ctrl | 98 % Ctrl |  |  |  |

Further lines, with some results ahead:

| IC50 (Abeta total) | IC50 [1] | Papp A→B at 120 min, 1 μM (P-gp; pig, LLC-PK1) | Papp B→A at 120 min, 1 μM (P-gp; pig, LLC-PK1) | IC50 (Abeta 1-42) | melting point | SMILES | Aβ42 (% Ctrl)_Mean (Aβ42; s.c., 4 h) | Aβtotal (% Ctrl)_Mean (Aβtotal; s.c., 4 h) | Aβ42 (% Ctrl)_Mean (Aβ42; p.o., 4 h) | Aβtotal (% Ctrl)_Mean (Aβtotal; p.o., 4 h) | further results |
| --- | --- | --- | --- | --- | --- | --- | --- | --- | --- | --- | --- |
|  | 36.3 nM |  |  |  | 94.6 °C | CC1(c2cc(NC(=O)c3ncc(Cl)cc3Cl)ccc2F)N=C(N)COC1F (single isomer, unassigned) [Compound 126] | 27 % Ctrl | 32 % Ctrl | 26 % Ctrl | 31 % Ctrl | Cellular αLisa assay in SKNBE2 cells Abetatotal pIC50 (Abeta total): 8.09; Cellular αLisa assay in SKNBE2 cells Abeta 42 pIC50 (Abeta 1-42): 8.06 |
|  |  | 8.9 ×10⁻⁶ cm/s | 17.7 ×10⁻⁶ cm/s |  |  | CC1(c2cc(NC(=O)c3ccc(Cl)cn3)ccc2F)N=C(N)COC1F (single isomer, unassigned) [Compound 134] |  |  | 27 % Ctrl | 35 % Ctrl | Cellular αLisa assay in SKNBE2 cells Abetatotal pIC50 (Abeta total): 8.42; Cellular αLisa assay in SKNBE2 cells Abeta 42 pIC50 (Abeta 1-42): 8.39 |
| 6.76 nM | 56.2 nM | 10.5 ×10⁻⁶ cm/s | 19 ×10⁻⁶ cm/s | 6.92 nM |  | C[C@]1(c2cc(NC(=O)c3ccc(C#N)cn3)ccc2F)N=C(N)CO[C@H]1C(F)(F)F [Compound 169] |  |  | 38 % Ctrl | 39 % Ctrl |  |
| 631 nM |  | 12 ×10⁻⁶ cm/s | 12 ×10⁻⁶ cm/s |  |  | COc1cnc(C(=O)Nc2ccc(F)c([C@@]3(C4CC4)N=C(N)CO[C@@H]3F)c2)cn1 [Compound 216] |  |  | 45 % Ctrl | 39 % Ctrl |  |
| 12.3 nM | 50.1 nM | 13.7 ×10⁻⁶ cm/s | 13.6 ×10⁻⁶ cm/s | 12.6 nM |  | COc1cnc(C(=O)Nc2ccc(F)c([C@@]3(C)N=C(N)CO[C@H]3C(F)(F)F)c2)cn1 [Compound 166, (2R,3R)—N-{3-[5-amino-3-methyl-2-(trifluoromethyl)-3,6-dihydro-2H-1,4-oxazin-3-yl]-4-fluorophenyl}-5-methoxypyrazine-2-carboxamide] |  |  | 50 % Ctrl | 43 % Ctrl |  |
| 7.59 nM | 34.7 nM |  |  | 7.59 nM | 214.23 °C | C[C@]1(c2cc(NC(=O)c3ncc(Cl)cc3Cl)ccc2F)N=C(N)CO[C@H]1C(F)(F)F [Compound 167] |  |  |  |  | Aβ42 (% Ctrl)_Mean (Aβ42; p.o., 2 h): 95 % Ctrl; Aβtotal (% Ctrl)_Mean (Aβtotal; p.o., 2 h): 78 % Ctrl |
